These results are taken from ChEMBL document CHEMBL1146499, “New compounds from an extract of Vernonia colorata leaves with anti-inflammatory activity” (2004).

Activity calls are given as the source filed them. The rule behind the calls is not given here.

What is called inhibition in vivo is the share of the control response that was lost under treatment. Read a low inhibition in vivo as a response near the control.

The subject of assay [1] is Rattus norvegicus. Put plainly: Antiinflammatory activity against carrageenan-induced paw edema in Wistar rat at 5 mg/kg, po. The class given is functional. (In general: In the carrageenan paw model, swelling and tenderness develop within hours.)
Assay [2] concerns Rattus norvegicus. Put plainly: Antiinflammatory activity against carrageenan-induced paw edema in Wistar rat at 1.8 mg/kg, po. The class given is functional, organism-based. Also noted: dose 1.8 mg/kg.
The subject of assay [3] is Rattus norvegicus. Kind of assay: Antiinflammatory activity against carrageenan-induced paw edema in Wistar rat at 1.3 mg/kg, po. The class given is functional, organism-based. Also noted: dose 1.3 mg/kg.
For assay [4], the system named is Rattus norvegicus. Put plainly: Antiinflammatory activity against carrageenan-induced paw edema in Wistar rat at 1.08 mg/kg, po. The class given is functional, organism-based. Also noted: dose 1.08 mg/kg.
The test system of assay [5] is Rattus norvegicus. Put plainly: Antiinflammatory activity against carrageenan-induced paw edema in Wistar rat at 1.7 mg/kg, po. Also noted: dose 1.7 mg/kg. The assay is classed as functional, organism-based.

`COc1ccc2c(c1)c(CC(=O)O)c(C)n2C(=O)c1ccc(Cl)cc1` [INDOMETHACIN] gave an inhibition in vivo at 5 mg/kg in the assay with Rattus norvegicus [1] of 85%.
Turning to `C[C@@]12CCC[C@H]1C1=C(CC2)[C@@]2(C)CC[C@H](O[C@@H]3O[C@H](CO[C@@H]4O[C@H](CO)[C@@H](O)[C@H](O)[C@H]4O)[C@@H](O)[C@H](O)[C@H]3O[C@@H]3O[C@H](CO)[C@H](O)[C@H](O)[C@H]3O)CC2CC1` (stereo not given in full), the outcome in the assay with Rattus norvegicus [2] was inactive.
As for `C[C@@]12CCC[C@H]1C1=C(CC2)[C@@]2(C)CC[C@H](O[C@@H]3O[C@H](CO[C@@H]4O[C@H](CO)[C@@H](O)[C@H](O)[C@H]4O)[C@@H](O)[C@H](O)[C@H]3O)CC2CC1` (stereo not given in full), in the assay with Rattus norvegicus [3], the result was inactive.
Regarding `C[C@H]1CO[C@@]2(C)O[C@@H]3C([C@@]45CCC=C4C4=C(CC5)[C@@]5(C)CC[C@H](O[C@@H]6O[C@H](CO)[C@@H](O)[C@H](O)[C@H]6O[C@@H]6O[C@H](CO)[C@H](O)[C@H](O)[C@H]6O)CC5CC4)[C@@H](O)O[C@@H]3C12O` (stereo not given in full), the outcome in the assay with Rattus norvegicus [4] was inactive.
As to `CC(=O)OC[C@H]1O[C@@H](O[C@H]2CC[C@]3(C)C4=C(CCC3C2)C2=CCC[C@@]2(C2[C@H]3O[C@]5(C)OC[C@H](C)C5(O)[C@H]3O[C@@H]2O)CC4)[C@H](O[C@@H]2O[C@H](CO)[C@H](O)[C@H](O)[C@H]2O)[C@@H](O)[C@@H]1O` (stereo not given in full), the outcome in the assay with Rattus norvegicus [5] was inactive.
